Patent US6737383B1, “Herbicidal oxadiazolidines” (priority 1999, dated 2004)

Key:
rape = experiment: Test B pre/postemergence rape; format: in vivo, Brassica napus
Method in brief: (§1)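 Test chemicals in a non-phytotoxic solvent mixture with surfactant were sprayed preemergence onto planted seeds and postemergence onto plants 2 to 18 cm tall (1- to 4-leaf stage). After twelve to sixteen days in a greenhouse, injury was visually rated against untreated controls from 0 (no effect) to 10 (complete control).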

giant foxtail = experiment: Test B pre/postemergence giant foxtail; format: in vivo, Setaria faberii
Method in brief: as §1

soybean = experiment: Test B pre/postemergence soybean; format: in vivo, Glycine max
Method in brief: as §1

pigweed = experiment: Test B pre/postemergence pigweed; format: in vivo, Amaranthus retroflexus
Method in brief: as §1

velvetleaf = experiment: Test B pre/postemergence velvetleaf; format: in vivo, Abutilon theophrasti
Method in brief: as §1

sugar beet = experiment: Test B pre/postemergence sugar beet; format: in vivo, Beta vulgaris
Method in brief: as §1

surinam grass = experiment: Test B pre/postemergence surinam grass; format: in vivo, Brachiaria decumbens
Method in brief: as §1

cocklebur = experiment: Test B pre/postemergence cocklebur; format: in vivo, Xanthium strumarium
Method in brief: as §1

corn = experiment: Test B pre/postemergence corn; format: in vivo, Zea mays
Method in brief: as §1

morningglory = experiment: Test B pre/postemergence morningglory; format: in vivo, Ipomoea hederacea
Method in brief: as §1

blackgrass = experiment: Test B pre/postemergence blackgrass; format: in vivo, Alopecurus myosuroides
Method in brief: as §1

bamyardgrass = experiment: Test B flood test barnyardgrass; format: in vivo, Echinochloa crus-galli
Method in brief: (§2)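 Flood test on plants grown to the 2-leaf stage; treated plants kept in greenhouse twelve to sixteen days, then visually rated against controls on a 0 (no effect) to 10 (complete control) scale.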

duck salad = experiment: Test B flood test duck salad; format: in vivo, Heteranthera limosa
Method in brief: as §2

purple nutsedge = experiment: Test B pre/postemergence purple nutsedge; format: in vivo, Cyperus rotundus
Method in brief: as §1

smallflower flatsedge = experiment: Test B flood test smallflower flatsedge; format: in vivo, Cyperus difformis
Method in brief: as §2

bedstraw = experiment: Test B pre/postemergence bedstraw; format: in vivo, Galium aparine
Method in brief: as §1

[1] = Postemergence, Rate 125 g/ha, scale of 0 to 10 where 0 is no effect and 10 is complete control
[2] = Preemergence, Rate 62 g/ha, scale 0 to 10 (0 no effect, 10 complete control)
[3] = Preemergence, Rate 125 g/ha, 0 is no effect, 10 is complete control
[4] = Preemergence, Rate 250 g/ha, scale 0 to 10, 0 is no effect, 10 is complete control
[5] = Preemergence, Rate 500 g/ha, scale 0 to 10 (0 no effect, 10 complete control)
[6] = Rate 62 g/ha, Postemergence, scale of 0 to 10 where 0 is no effect and 10 is complete control
[7] = Rate 250 g/ha, Postemergence, scale 0 to 10, 0 is no effect, 10 is complete control
[8] = Rate 500 g/ha, Postemergence, scale 0 to 10, 0 no effect, 10 complete control
[9] = Postemergence, Rate 62 g/ha, scale 0 to 10, 0 is no effect, 10 is complete control
[10] = Postemergence (flood test species), Rate 125 g/ha, scale of 0 to 10 where 0 is no effect and 10 is complete control
[11] = Rate 250 g/ha, Postemergence (flood test), scale 0 to 10, 0 is no effect, 10 is complete control
[12] = Rate 250 g/ha, headed Pre-emergence (flood test species), scale 0 to 10 (0 no effect, 10 complete control)
[13] = Rate 500 g/ha, headed Pre-emergence (flood test species), scale 0 to 10 (0 no effect, 10 complete control)
[14] = Rate 500 g/ha, listed under Postemergence (flood test species), scale 0 to 10, 0 no effect, 10 complete control
[15] = Rate 1000 g/ha, Pre-emergence (as headed), scale 0 to 10
[16] = Rate 62 g/ha, Postemergence section, flood test species, scale of 0 to 10 where 0 is no effect and 10 is complete control
[17] = Rate 2000 g/ha, Pre-emergence (as headed), scale 0 to 10

CC(C)N(C(=O)n1oc(=O)n(-c2ccnn2C)c1=O)c1ccc(F)cc1 [Compound 124]
Rape plant response rating (rape; [1]): 0 | Rape plant response rating (rape; [2]): 0 | Rape plant response rating (0 to 10 scale) (rape; [3]): 0 | Rape plant response rating (rape; [4]): 0 | Rape plant response rating (rape; [5]): 0 | Rape plant response rating (rape; [6]): 0 | Plant response rating, Rape (rape; [7]): 0 | Rape plant response rating (rape; [8]): 0 | Giant foxtail plant response rating (giant foxtail; [1]): 0 | Giant foxtail plant response rating (giant foxtail; [2]): 0 | Giant foxtail plant response rating (0 to 10 scale) (giant foxtail; [3]): 0 | Giant foxtail plant response rating (giant foxtail; [4]): 0 | Giant foxtail plant response rating (giant foxtail; [5]): 0 | Giant foxtail plant response rating (giant foxtail; [6]): 0 | Plant response rating, Giant foxtail (giant foxtail; [7]): 0 | Giant foxtail plant response rating (giant foxtail; [8]): 0 | Soybean plant response rating (soybean; [1]): 3 | Soybean plant response rating (soybean; [2]): 0 | Soybean plant response rating (0 to 10 scale) (soybean; [3]): 0 | Soybean plant response rating (soybean; [4]): 0 | Soybean plant response rating (soybean; [5]): 0 | Soybean plant response rating (soybean; [6]): 0 | Plant response rating, Soybean (soybean; [7]): 4 | Soybean plant response rating (soybean; [8]): 5 | Redroot pigweed plant response rating (pigweed; [1]): 0 | Redroot pigweed plant response rating (pigweed; [2]): 0 | Redroot pigweed plant response rating (0 to 10 scale) (pigweed; [3]): 0 | Redroot pigweed plant response rating (pigweed; [4]): 0 | Redroot pigweed plant response rating (pigweed; [5]): 0 | Redroot pigweed plant response rating (pigweed; [6]): 0 | Plant response rating, Redroot pigweed (pigweed; [7]): 0 | Redroot pigweed plant response rating (pigweed; [8]): 0 | Velvetleaf plant response rating (velvetleaf; [1]): 0 | Velvetleaf plant response rating (velvetleaf; [2]): 0 | Velvetleaf plant response rating (0 to 10 scale) (velvetleaf; [3]): 0 | Velvetleaf plant response rating (velvetleaf; [4]): 0 | Velvetleaf plant response rating (velvetleaf; [5]): 0 | Velvetleaf plant response rating (velvetleaf; [6]): 0 | Plant response rating, Velvetleaf (velvetleaf; [7]): 0 | Velvetleaf plant response rating (velvetleaf; [8]): 0 | Sugarbeets plant response rating (sugar beet; [1]): 0 | Sugarbeets plant response rating (sugar beet; [2]): 0 | Sugarbeets plant response rating (0 to 10 scale) (sugar beet; [3]): 0 | Sugarbeets plant response rating (sugar beet; [4]): 0 | Sugarbeets plant response rating (sugar beet; [5]): 0 | Sugarbeets plant response rating (sugar beet; [6]): 0 | Plant response rating, Sugarbeets (sugar beet; [7]): 0 | Sugarbeets plant response rating (sugar beet; [8]): 0 | B. signalgrass plant response rating (surinam grass; [9]): 0 | B. signalgrass plant response rating (surinam grass; [1]): 0 | B. signalgrass plant response rating (surinam grass; [2]): 0 | B. signalgrass plant response rating (0 to 10 scale) (surinam grass; [3]): 0 | B. signalgrass plant response rating (surinam grass; [4]): 0 | B. signalgrass plant response rating (surinam grass; [5]): 0 | Plant response rating, B. signalgrass (surinam grass; [7]): 0 | B. signalgrass plant response rating (surinam grass; Rate 500 g/ha, Postemergence, scale of 0 to 10 where 0 is no effect and 10 is complete control): 0 | Cocklebur plant response rating (cocklebur; [1]): 0 | Cocklebur plant response rating (cocklebur; [2]): 0 | Cocklebur plant response rating (cocklebur; [4]): 0 | Cocklebur plant response rating (cocklebur; [5]): 0 | Cocklebur plant response rating (cocklebur; [6]): 0 | Plant response rating, Cocklebur (cocklebur; [7]): 0 | Cocklebur plant response rating (cocklebur; [8]): 0 | Corn plant response rating (corn; [1]): 0 | Corn plant response rating (corn; [2]): 0 | Corn plant response rating (0 to 10 scale) (corn; [3]): 0 | Corn plant response rating (corn; [4]): 0 | Corn plant response rating (corn; [5]): 0 | Corn plant response rating (corn; [6]): 0 | Plant response rating, Corn (corn; [7]): 0 | Corn plant response rating (corn; [8]): 0 | Morningglory plant response rating (morningglory; [1]): 0 | Morningglory plant response rating (morningglory; [2]): 0 | Morningglory plant response rating (0 to 10 scale) (morningglory; [3]): 0 | Morningglory plant response rating (morningglory; [4]): 0 | Morningglory plant response rating (morningglory; [5]): 0 | Morningglory plant response rating (morningglory; [6]): 0 | Plant response rating, Morningglory (morningglory; [7]): 0 | Morningglory plant response rating (morningglory; [8]): 2 | Blackgrass plant response rating (blackgrass; [1]): 0 | Blackgrass plant response rating (blackgrass; [2]): 0 | Blackgrass plant response rating (0 to 10 scale) (blackgrass; [3]): 0 | Blackgrass plant response rating (blackgrass; [4]): 0 | Blackgrass plant response rating (blackgrass; [5]): 0 | Blackgrass plant response rating (blackgrass; [6]): 0 | Plant response rating, Blackgrass (blackgrass; [7]): 0 | Blackgrass plant response rating (blackgrass; [8]): 0 | Barnyardgrass plant response rating (bamyardgrass; [10]): 0 | Barnyardgrass plant response rating (bamyardgrass; [9]): 0 | Plant response rating, Barnyardgrass (bamyardgrass; [11]): 0 | Barnyardgrass plant response rating (bamyardgrass; [12]): 0 | Plant response rating, Barnyardgrass (bamyardgrass; [13]): 0 | Barnyardgrass plant response rating (bamyardgrass; [14]): 0 | Barnyardgrass plant response rating (bamyardgrass; [15]): 0 | Barnyardgrass plant response rating (bamyardgrass; Rate 2000 g/ha, Pre-emergence (as headed), scale 0 to 10, 0 no effect, 10 complete control): 0 | Ducksalad plant response rating (duck salad; [10]): 0 | Ducksalad plant response rating (duck salad; [16]): 0 | Plant response rating, Ducksalad (duck salad; [11]): 0 | Ducksalad plant response rating (duck salad; [12]): 0 | Plant response rating, Ducksalad (duck salad; [13]): 0 | Ducksalad plant response rating (duck salad; [14]): 0 | Ducksalad plant response rating (duck salad; [15]): 0 | Ducksalad plant response rating (duck salad; [17]): 0 | Nutsedge plant response rating (purple nutsedge; [1]): 0 | Nutsedge plant response rating (purple nutsedge; [2]): 0 | Nutsedge plant response rating (0 to 10 scale) (purple nutsedge; [3]): 0 | Nutsedge plant response rating (purple nutsedge; [4]): 0 | Nutsedge plant response rating (purple nutsedge; [5]): 0 | Nutsedge plant response rating (purple nutsedge; [6]): 0 | Plant response rating, Nutsedge (purple nutsedge; [7]): 0 | Nutsedge plant response rating (purple nutsedge; [8]): 0 | S. Flatsedge plant response rating (smallflower flatsedge; [10]): 0 | S. Flatsedge plant response rating (smallflower flatsedge; Pre-emergence, Rate 1000 g/ha, scale 0 to 10 (0 no effect, 10 complete control)): 0 | S. Flatsedge plant response rating (smallflower flatsedge; [16]): 0 | Plant response rating, S. Flatsedge (smallflower flatsedge; [11]): 0 | S. Flatsedge plant response rating (smallflower flatsedge; [12]): 0 | Plant response rating, S. Flatsedge (smallflower flatsedge; [13]): 0 | S. Flatsedge plant response rating (smallflower flatsedge; [14]): 0 | S. Flatsedge plant response rating (smallflower flatsedge; [17]): 0 | Bedstraw plant response rating (bedstraw; [2]): 0 | Bedstraw plant response rating (0 to 10 scale) (bedstraw; [3]): 0 | Bedstraw plant response rating (bedstraw; [4]): 0 | Bedstraw plant response rating (bedstraw; [5]): 0 | Bedstraw plant response rating (bedstraw; [8]): 0
